Patent publication US20100016275A1, “NOVEL COMPOUND 395” (priority 2008, published 2010)

Tested on: human hepatocytes
Assay: Human hepatic intrinsic clearance (CLint) assay in human hepatocytes
Format: in vitro ADME
Conditions: human hepatocytes, protein free suspension buffer, pH 7.4, 37° C.
Excerpt: The hepatic metabolic component of human clearance is predicted from scaled in vitro intrinsic clearance (CLint) data from human hepatocytes (see Chem Biol Interact. 2007, 168(1), 2-15) and from the extent of human blood binding, primarily due to plasma protein binding. The well stirred model of the liver is a model for predicting blood clearance in the liver from intrinsic clearance (CLint) determined using hepatocytes. (see Drug Metab Dispos. 2005, 33(9), 1304-11) The model is usually written as:
Human Hepatic Intrinsic Clearance (CLint) Assay
For the majority of drugs, a large component of their plasma clearance is contributed by hepatic metabolism. Intrinsic clearance (CLint) is a measure of the potential of a compound to undergo metabolism and can be related to hepatic clearance in vivo from a consideration of plasma protein binding and liver blood flow. Therefore, CLint may be used as an index of the relative metabolic stability of compounds within a project and compared with other external probe substrates. Furthermore, the measurement of CLint in vitro within a research project, where hepatic metabolic clearance is known to be an issue, may be a useful means of understanding the different pharmacokinetic behaviour of the compounds in vivo.
This following description outlines a method for estimating intrinsic clearance (CLint) from human hepatocyte incubations using suspension buffer containing no HSA (human serum albumin) and maintaining physiological conditions of pH 7.4.
Hepatocytes were prepared by a two-step in situ collagenase perfusion method of a portion of the human liver, suspended in protein free buffer (see below) and stored on ice, prior to incubation.
This method is based on the procedure of Seglen (Preparation of rat liver cells. I. Effect of Ca^2+ on enzymatic dispersion of isolated, perfused liver. Exptl. Cell Res., 1972, 74, p450 and preparation of isolated rat liver cells. Methods Cell Biol., 1976, 13, p 29) which itself was developed from the one step procedure of Berry and Friend (High-yield preparation of isolated rat liver parenchymal cells. J. Cell Biol., 1969, 43, p 506).
Suspension medium: 2.34 g Na HEPES, 2.0 g HSA fraction V, 0.4 g D-fructose, DMEM (1 L powder equivalent, Sigma; w/1 g.1^−1 glucose, w/Na pyruvate, w/o NaHCO3, w/o phenol red), made up to 1 L with Milli-Q water, pH to 7.4 with 1 M HCl. (Protein free suspension buffer is made omitting the 2.0 g HSA fraction V)
The capsule of a liver which has been perfused with digestion medium was cut open and the cells gently teased out into the medium. The cells were then passed through a mesh (approximately 250 μM) into a beaker containing 50 ml suspension medium. The mesh was rinsed through into the beaker with further suspension buffer to a final volume of 100 ml. The suspension was divided between two plastic 50 mL centrifuge tubes (pre-cooled on ice) and centrifuged at 50×g for 2 min at 4° C. The supernatants were decanted and the pellets re-suspended in protein free suspension buffer to the original volume. The centrifugation step was repeated and each pellet re-suspended in approximately 10 ml protein free suspension buffer. The suspensions were combined and the volume made up to 50 mL with protein free suspension buffer.
An aliquot of cell suspension (0.2 mL) was diluted with 0.2 ml protein free suspension buffer. To the diluted cells was added 0.2 mL trypan blue solution (0.4% w/v) followed by gentle mixing. After 1 min, a pasteur pipette was used to withdraw a sample and fill an Improved Neubauer Counting Chamber by capillary action. The cells were then counted (central square only) using an inverted microscope, viable cells being able to exclude the dye and non-viable cells being stained. The percentage of viable cells in the preparation was calculated thus: […]

SMILES: Cc1ccc(CSc2nc(N[C@H](C)CO)cc(NS(=O)(=O)N3CCC3)n2)c(F)c1C [Example 42]
- Human hepatocyte Intrinsic-clearance assay CLint: 17 μL/min/10^6 cells
